In patent US20210001143A1, “FOCAL PHOTODYNAMIC THERAPY METHODS” (STEBA MAOR SA, priority 2011, published 2021):

Assays:
[1] = system: low risk organ-confined prostate cancer; experiment: Vascular-targeted photodynamic therapy (VTP), early treatment effect on 1 week MRI (lack of gadolinium uptake); type: in vivo, human; settings: 4 mg/kg intravenously, light 200 J/cm, men
Description: (§1) Men with low risk organ-confined prostate cancer (Gleason 3+3 on minimum 10 core TRUS biopsy) were recruited into two consecutive studies: PCM201 (a dose escalation study) or PCM203 (a confirmatory study). The vascular-targeted photodynamic therapy (“VTP”) procedure, carried out under general anesthesia, involved administration of TOOKAD® Soluble intravenously at 4 mg/kg, which was then activated by low power laser light delivered locally to the prostate via a brachytherapy-style transperineal template with a light density of 200 J/cm. Planned treatment volume (“PTV”, in mls) was determined by the location of tumor on biopsy and by MRI, and varied in volume from less than one lobe, to the whole prostate.
(§2) The Light Density Index (“LDI”) was calculated as LDI=Σ(n)L/PTV, where Σ(n)L is the total length of all illuminating fibers (in cm), and PTV is the planned treatment volume, in mls.
(§3) This was also correlated with the result of 6 month transrectal ultrasound (TRUS)-guided biopsy (positive or negative for any cancer).
(§4) The correlation between LDI and the volume of tissue necrosis at day 7 and with the rate of negative biopsies at Month 6 was assessed in search of a threshold.
(§5) 90 men were treated with a TOOKAD® Soluble dose of 4 mg/kg and a light dose of 200 J/cm in the two studies. Of these 89 were analyzable for LDI.

[2] = system: low risk organ-confined prostate cancer; experiment: Vascular-targeted photodynamic therapy (VTP), 6 month TRUS-guided biopsy; type: in vivo, human; settings: study PCM201, 4 mg/kg intravenously, light 200 J/cm, men
Description: as §1, §2, §3, §4, §5

Substance: Palladium 3^1-oxo-15-methoxycarbonylmethyl-rhodobacteriochlorin 13^1-(2-sulfoethyl) amide dipotassium salt [TOOKAD® Soluble]
- Treatment effect on 1 week MRI as % of PTV ([1]; study PCM201, LDI < 1): 59 (17) % of PTV
- Treatment effect on 1 week MRI as % of PTV ([1]; study PCM201, LDI ≥ 1): 95 (12) % of PTV
- Treatment effect on 1 week MRI as % of PTV ([1]; study PCM203, LDI < 1): 60 (22) % of PTV
- Treatment effect on 1 week MRI as % of PTV ([1]; study PCM203, LDI ≥ 1): 94 (28) % of PTV
- % of negative biopsies (6 months) ([2]; LDI < 1): 31 (4/17) %
- % of negative biopsies (6 months) ([2]; LDI ≥ 1): 83 (10/12) %
